Calls of active or inactive are those of the source. The rule behind the calls is not given here.
Assays:
[1] = Metabolic stability in human liver microsomes assessed as half-life; assay type: ADME, Microsome
MDA-MB-231 [2] = assay: Inhibition of RNA polymerase 2 C-terminal domain phosphorylation at Ser5 in heptad repeat in human MDA-MB-231 cells at 37 to 333 nM incubated for 24 hrs by Western blotting analysis; assay type: cell-based; details: dose 37-333 nM
[3] = Oral bioavailability in CD1 mouse at 10 mg/kg measured upto 24 hrs by LC-MS/MS analysis; assay type: ADME, organism-based; details: in vivo
[4] = AUC(0 to t) in CD1 mouse at 10 mg/kg, po measured upto 24 hrs by LC-MS/MS analysis; assay type: ADME, organism-based; details: in vivo
MDA-MB-453 [5] = assay: Downregulation of Rb protein phosphorylation at Ser807 in human MDA-MB-453 cells incubated for 24 hrs by Western blot analysis; assay type: functional, cell-based; details: dose 37-333 nM
[6] = biological target: T1, Mitogen-activated protein kinase 15 (Homo sapiens) (UniProt Q8TD08); assay: Inhibition of ERK7 (unknown origin) at 1 uM by discoverX kinomescan assay
T1 sequence (whole entry): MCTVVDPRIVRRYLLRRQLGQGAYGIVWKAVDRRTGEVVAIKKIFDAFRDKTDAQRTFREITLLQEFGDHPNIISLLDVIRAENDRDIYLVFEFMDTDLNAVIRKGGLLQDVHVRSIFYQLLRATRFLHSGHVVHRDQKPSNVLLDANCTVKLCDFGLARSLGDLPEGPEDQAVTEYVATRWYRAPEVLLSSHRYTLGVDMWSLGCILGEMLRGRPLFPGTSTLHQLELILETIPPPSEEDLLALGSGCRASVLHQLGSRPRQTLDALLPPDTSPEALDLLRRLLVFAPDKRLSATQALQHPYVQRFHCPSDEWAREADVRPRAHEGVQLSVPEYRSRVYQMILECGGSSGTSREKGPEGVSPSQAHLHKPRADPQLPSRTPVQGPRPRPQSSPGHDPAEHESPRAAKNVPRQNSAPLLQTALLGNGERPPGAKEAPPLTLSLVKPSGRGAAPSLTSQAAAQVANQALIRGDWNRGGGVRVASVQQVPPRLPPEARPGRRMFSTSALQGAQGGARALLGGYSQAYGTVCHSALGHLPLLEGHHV

[7] = Half life in CD1 mouse at 10 mg/kg, po measured upto 24 hrs by LC-MS/MS analysis; assay type: ADME, organism-based; details: in vivo
MDA-MB-453 [8] = assay: Downregulation of Rb protein phosphorylation at Ser795 in human MDA-MB-453 cells incubated for 24 hrs by Western blot analysis; assay type: functional, cell-based; details: dose 37-333 nM
[9] = Toxicity in Balb/c mouse xenografted with human MDA-MB-231 cells assessed as change in body weight at 5 to 10 mg/kg po administered once daily for 21 days and measured every three days; assay type: organism-based; details: in vivo, 504 h, dose 5-10 mg/kg, time 21 day
[10] = biological target: Cyclin-dependent kinase 16 (Homo sapiens) (UniProt Q00536); assay: Inhibition of CDK16 (unknown origin) at 1 uM by discoverX kinomescan assay
Sequence of Cyclin-dependent kinase 16 (Homo sapiens) (Q00536 whole entry): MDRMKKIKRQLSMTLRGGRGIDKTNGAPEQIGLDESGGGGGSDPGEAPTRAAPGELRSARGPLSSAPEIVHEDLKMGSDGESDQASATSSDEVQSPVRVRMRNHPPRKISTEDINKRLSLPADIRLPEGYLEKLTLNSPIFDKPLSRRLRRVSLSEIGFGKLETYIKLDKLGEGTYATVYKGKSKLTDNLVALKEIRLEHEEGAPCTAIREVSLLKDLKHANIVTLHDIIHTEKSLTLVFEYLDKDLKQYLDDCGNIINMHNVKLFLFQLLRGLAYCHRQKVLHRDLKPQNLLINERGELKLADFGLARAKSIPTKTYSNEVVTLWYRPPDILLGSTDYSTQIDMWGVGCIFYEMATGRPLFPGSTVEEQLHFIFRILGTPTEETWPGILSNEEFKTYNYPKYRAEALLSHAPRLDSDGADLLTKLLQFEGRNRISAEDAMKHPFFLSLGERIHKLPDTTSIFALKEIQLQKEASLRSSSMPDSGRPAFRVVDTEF

MDA-MB-231 [11] = assay: Downregulation of Rb protein phosphorylation at Ser608 in human MDA-MB-231 cells incubated for 24 hrs by Western blot analysis; assay type: functional, cell-based; details: dose 37-333 nM
[12] = biological target: T2, Dual specificity mitogen-activated protein kinase kinase 5 (Homo sapiens) (UniProt Q13163); assay: Inhibition of MAP2K5 (unknown origin) assessed as remaining activity at 1 uM by discoverX kinomescan assay relative to control
T2 sequence (whole entry): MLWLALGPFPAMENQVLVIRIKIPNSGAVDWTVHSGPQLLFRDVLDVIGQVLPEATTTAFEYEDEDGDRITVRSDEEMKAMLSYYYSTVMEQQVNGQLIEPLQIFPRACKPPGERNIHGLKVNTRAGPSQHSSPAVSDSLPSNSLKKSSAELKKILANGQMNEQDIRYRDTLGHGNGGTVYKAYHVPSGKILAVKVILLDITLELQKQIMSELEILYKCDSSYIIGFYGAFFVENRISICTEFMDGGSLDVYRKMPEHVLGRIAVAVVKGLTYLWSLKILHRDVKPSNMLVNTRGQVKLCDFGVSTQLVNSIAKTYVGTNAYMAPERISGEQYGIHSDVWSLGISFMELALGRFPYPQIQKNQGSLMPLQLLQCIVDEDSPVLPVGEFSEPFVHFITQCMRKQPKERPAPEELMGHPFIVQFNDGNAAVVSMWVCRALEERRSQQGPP

[13] = biological target: Cyclin-dependent kinase 18 (Homo sapiens) (UniProt Q07002); assay: Inhibition of CDK18 (unknown origin) at 1 uM by discoverX kinomescan assay
Sequence of Cyclin-dependent kinase 18 (Homo sapiens) (Q07002 whole entry): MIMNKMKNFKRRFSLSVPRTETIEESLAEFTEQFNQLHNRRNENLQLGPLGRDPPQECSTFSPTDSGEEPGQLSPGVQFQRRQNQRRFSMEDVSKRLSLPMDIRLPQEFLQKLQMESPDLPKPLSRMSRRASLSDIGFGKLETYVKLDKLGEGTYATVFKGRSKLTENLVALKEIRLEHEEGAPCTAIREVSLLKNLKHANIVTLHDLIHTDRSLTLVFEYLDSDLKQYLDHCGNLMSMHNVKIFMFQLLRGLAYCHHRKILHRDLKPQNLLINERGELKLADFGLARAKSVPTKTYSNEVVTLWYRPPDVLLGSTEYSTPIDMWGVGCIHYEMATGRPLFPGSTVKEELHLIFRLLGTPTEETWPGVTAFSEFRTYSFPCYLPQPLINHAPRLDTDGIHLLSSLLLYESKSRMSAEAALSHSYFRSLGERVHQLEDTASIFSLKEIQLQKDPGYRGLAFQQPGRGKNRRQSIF

[14] = biological target: Cyclin-dependent kinase 17 (Homo sapiens) (UniProt Q00537); assay: Inhibition of CDK17 (unknown origin) at 1 uM by discoverX kinomescan assay
Sequence of Cyclin-dependent kinase 17 (Homo sapiens) (Q00537 whole entry, looked up): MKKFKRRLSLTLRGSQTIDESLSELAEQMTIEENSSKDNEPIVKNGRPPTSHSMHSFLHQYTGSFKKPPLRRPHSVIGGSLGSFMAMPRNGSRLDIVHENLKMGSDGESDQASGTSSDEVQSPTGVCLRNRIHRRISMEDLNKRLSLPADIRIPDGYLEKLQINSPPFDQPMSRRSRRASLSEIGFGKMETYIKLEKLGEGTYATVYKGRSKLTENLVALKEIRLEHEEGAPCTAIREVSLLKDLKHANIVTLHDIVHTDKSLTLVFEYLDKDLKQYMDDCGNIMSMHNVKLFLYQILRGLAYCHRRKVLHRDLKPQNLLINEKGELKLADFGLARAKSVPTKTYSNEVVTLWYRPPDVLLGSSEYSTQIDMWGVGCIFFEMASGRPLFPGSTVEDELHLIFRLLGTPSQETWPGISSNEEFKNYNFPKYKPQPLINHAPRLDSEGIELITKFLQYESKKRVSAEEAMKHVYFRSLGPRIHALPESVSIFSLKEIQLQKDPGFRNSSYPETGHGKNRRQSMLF

[15] = Metabolic stability in mouse liver microsomes assessed as half-life; assay type: ADME, Microsome
MDA-MB-231 [16] = assay: Antitumor activity against human MDA-MB-231 cells xenografted in Balb/c mouse assessed as tumor regression at 5 to 10 mg/kg, po administered once daily and measured at day 15; assay type: functional, organism-based; details: dose 5-10 mg/kg
[17] = Cmax in CD1 mouse at 10 mg/kg, po measured upto 24 hrs by LC-MS/MS analysis; assay type: ADME, organism-based; details: in vivo
MDA-MB-453 [18] = assay: Antiproliferative activity against human MDA-MB-453 cells incubated for 120 hrs by CCK-8 assay; assay type: functional, cell-based; details: MDA-MB-453, 120 h
[19] = biological target: Cyclin-dependent kinase 7 (Homo sapiens) (UniProt P50613); assay: Inhibition of CDK7 in human MDA-MB-453 cells assessed as decrease in Thr160 phosphorylation of CDK2 at 37 to 333 nM incubated for 24 hrs by Western blot substrate; assay type: cell-based; details: dose 37-333 nM
Sequence of Cyclin-dependent kinase 7 (Homo sapiens) (P50613 whole entry): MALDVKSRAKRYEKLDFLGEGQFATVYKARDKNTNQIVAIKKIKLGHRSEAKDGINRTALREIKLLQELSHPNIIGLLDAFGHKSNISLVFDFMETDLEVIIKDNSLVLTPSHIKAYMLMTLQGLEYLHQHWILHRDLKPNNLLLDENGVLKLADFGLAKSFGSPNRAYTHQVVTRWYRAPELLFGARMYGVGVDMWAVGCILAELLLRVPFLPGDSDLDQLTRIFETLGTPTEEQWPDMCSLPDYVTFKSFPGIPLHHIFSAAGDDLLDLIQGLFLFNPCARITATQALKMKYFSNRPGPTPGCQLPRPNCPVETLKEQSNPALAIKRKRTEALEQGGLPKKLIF

MDA-MB-231 [20] = assay: Downregulation of Rb protein phosphorylation at Ser811 in human MDA-MB-231 cells incubated for 24 hrs by Western blot analysis; assay type: functional, cell-based; details: dose 37-333 nM
MDA-MB-453 [21] = assay: Downregulation of Rb protein phosphorylation at Ser811 in human MDA-MB-453 cells incubated for 24 hrs by Western blot analysis; assay type: functional, cell-based; details: dose 37-333 nM
MDA-MB-453 [22] = assay: Downregulation of Rb protein phosphorylation at Thr826 in human MDA-MB-453 cells incubated for 24 hrs by Western blot analysis; assay type: functional, cell-based; details: dose 37-333 nM
MDA-MB-453 [23] = assay: Induction of cell cycle arrest in human MDA-MB-453 cells assessed as G0/G1 phase arrest at 12.3 to 1000 nM incubated for 24 hrs by PI staining based flow cytometry analysis; assay type: functional; details: dose 12.3-1000 nM
MDA-MB-231 [24] = assay: Induction of cell cycle arrest in human MDA-MB-231 cells assessed as G0/G1 phase arrest at 12.3 to 1000 nM incubated for 24 hrs by PI staining based flow cytometry analysis; assay type: functional; details: dose 12.3-1000 nM
MDA-MB-231 [25] = assay: Antiproliferative activity against human MDA-MB-231 cells incubated for 120 hrs by CCK-8 assay; assay type: functional, cell-based; details: MDA-MB-231, 120 h
MDA-MB-231 [26] = assay: Downregulation of Rb protein phosphorylation at Ser780 in human MDA-MB-231 cells incubated for 24 hrs by Western blot analysis; assay type: functional, cell-based; details: dose 37-333 nM
MDA-MB-231 [27] = assay: Inhibition of RNA polymerase 2 C-terminal domain phosphorylation at Ser7 in heptad repeat in human MDA-MB-231 cells at 37 to 333 nM incubated for 24 hrs by Western blotting analysis; assay type: cell-based; details: dose 37-333 nM

half-life [1]: 1.2 h
bioavailability [3]: 22.3%
AUC(0-t) at 24 h [4]: 513 ng·h/mL
half-life [7]: 2.11 h
inhibition [10]: inactive
Activity [12]: < 1%
inhibition [13]: inactive
inhibition [14]: inactive
half-life [15]: 0.85 h
Cmax [17]: 117 ng/mL
EC50 (MDA-MB-453 [18]): 0.15 µM
inhibition [19]: Active
EC50 (MDA-MB-231 [25]): 0.32 µM
Compound: CP(C)(=O)c1c(C#N)ccc2c(-c3nc(N[C@@H]4CNC[C@@H](F)C4)nc4ccsc34)c[nH]c12
inhibition (MDA-MB-231 [2]): Active
Activity (MDA-MB-453 [5]): Dose-Dependent Effect
inhibition [6]: inactive
Activity (MDA-MB-453 [8]): Dose-Dependent Effect
Activity [9]: Non-Toxic
Activity (MDA-MB-231 [11]): Dose-Dependent Effect
Activity (MDA-MB-231 [16]): Active
Activity (MDA-MB-231 [20]): Dose-Dependent Effect
Activity (MDA-MB-453 [21]): Dose-Dependent Effect
Activity (MDA-MB-453 [22]): Dose-Dependent Effect
Activity (MDA-MB-453 [23]): Active
Activity (MDA-MB-231 [24]): Active
Activity (MDA-MB-231 [26]): Dose-Dependent Effect
inhibition (MDA-MB-231 [27]): Active
